The structures appear in SMILES notation.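 Each compound was tested at five concentrations against cells in 96-well plates for 48 hours. The concentration for full growth arrest is given as TGI.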

Among the test systems are MDA-MB-435; A498 renal; BT-549 breast; MDA-MB-231 breast; SK-MEL-2 melanoma; HCT-116 colon; MDA-N; SW-620 colon; UACC-62 melanoma; TK-10 renal.
What all share (assay): NCI anticancer screen, dose series, 48 h

On to `O=C(CCc1ccc(O)cc1)NCCCNC(=O)CCc1ccc(O)cc1`, for which the TGI in the assay with MDA-MB-435, in the assay with A498 renal, in the assay on BT-549 breast, in the assay with MDA-MB-231 breast, in the assay with SK-MEL-2 melanoma and with HCT-116 colon was over 100 µM each time. The TGI with MDA-N, with SW-620 colon and in the assay on UACC-62 melanoma was over 100 µM in each case.
Consider `Nc1c2c(nc3ccccc13)CCCc1ccccc1-2`, for which the TGI is 24.7 µM in the assay on MDA-MB-435; 22 µM in the assay with A498 renal; over 100 µM in the assay with BT-549 breast; 19.8 µM in the assay with MDA-MB-231 breast; 27.1 µM in the assay with SK-MEL-2 melanoma; 18.8 µM in the assay on TK-10 renal. In addition, the TGI in the assay with HCT-116 colon was found to be 19.1 µM; in the assay with MDA-N, 17.2 µM; with SW-620 colon, 26.6 µM; in the assay on UACC-62 melanoma, 20.8 µM.
For `C=CCn1c(-c2ccc(Cl)cc2Cl)csc1=Nc1c(C)n(C)n(-c2ccccc2)c1=O`, the TGI with MDA-MB-435 came out at 25.2 µM; with A498 renal it was 25.4 µM; with BT-549 breast it was 26.4 µM; in the assay with MDA-MB-231 breast, 30 µM; in the assay on SK-MEL-2 melanoma, 29.2 µM; with TK-10 renal, 25.7 µM. The TGI with HCT-116 colon came out at 20.4 µM; in the assay on MDA-N, 22.4 µM; in the assay on SW-620 colon, 32.8 µM; in the assay on UACC-62 melanoma, 22.5 µM.
Turning to `Cc1ccc(S(=O)(=O)N2CCCSCCN(S(=O)(=O)c3ccc(C)cc3)CCCSCC2)cc1`, the TGI with MDA-MB-435, in the assay with A498 renal, in the assay on BT-549 breast, in the assay with MDA-MB-231 breast, in the assay on SK-MEL-2 melanoma and in the assay on TK-10 renal was over 100 µM throughout. Moreover, the TGI in the assay on HCT-116 colon, in the assay with MDA-N, in the assay on SW-620 colon and in the assay on UACC-62 melanoma was over 100 µM throughout.
Consider `CCOP(C)(=O)/C(Cc1ccc(OC)c(OC)c1)=N\O` (stereo not drawn), for which the TGI in the assay on MDA-MB-435, with A498 renal, with BT-549 breast, with MDA-MB-231 breast, in the assay on SK-MEL-2 melanoma and with TK-10 renal was over 100 µM each time. Besides, the TGI in the assay on HCT-116 colon, with MDA-N, with SW-620 colon and in the assay on UACC-62 melanoma was over 100 µM in each case.
Take `CCCCN1C(=O)CS/C1=N/Nc1nc2c([nH]1)c(=O)n(C)c(=O)n2C`: the TGI in the assay with MDA-MB-435 was 40.7 µM; in the assay with A498 renal, over 100 µM; in the assay on BT-549 breast, over 100 µM; in the assay with MDA-MB-231 breast, over 100 µM; in the assay with SK-MEL-2 melanoma, over 100 µM; with TK-10 renal, over 100 µM. The TGI with HCT-116 colon is 29.3 µM; in the assay with MDA-N it was 36.6 µM; in the assay on UACC-62 melanoma, over 100 µM.
Turning to `COc1cc(Nc2nc3ccccc3nc2C(C)C)cc(OC)c1OC`, the TGI in the assay with MDA-MB-435, in the assay with A498 renal, in the assay on BT-549 breast, in the assay on MDA-MB-231 breast, in the assay with SK-MEL-2 melanoma and in the assay on TK-10 renal was over 100 µM throughout. Besides, the TGI in the assay with HCT-116 colon, in the assay on MDA-N, with SW-620 colon and with UACC-62 melanoma was over 100 µM in each case.
For `CCn1c(=O)c2c3cc(OC(C)=O)ccc3oc2c2ccc(OC(C)=O)cc21`, the TGI in the assay with MDA-MB-435 is over 100 µM; in the assay on A498 renal, 83 µM; with BT-549 breast it was over 100 µM; with MDA-MB-231 breast, over 100 µM; with TK-10 renal, over 100 µM; in the assay on HCT-116 colon, over 100 µM. In addition, the TGI with MDA-N, in the assay with SW-620 colon and with UACC-62 melanoma was over 100 µM each time.
`O=C1CCCC[C@H]1C(O)CC1CC(=O)N(c2ccccc2)C(=O)C1` (stereo partly drawn): the TGI in the assay on MDA-MB-435, in the assay on A498 renal, in the assay on BT-549 breast, in the assay on MDA-MB-231 breast, in the assay with TK-10 renal and in the assay with HCT-116 colon was over 100 µM each time. Besides, the TGI with MDA-N, in the assay on SW-620 colon and in the assay with UACC-62 melanoma was over 100 µM in each case.
As for `CC(=O)OC(=C(C#N)C#N)c1nccnc1C(C)=O`, the TGI was over 20 µM in the assay on MDA-MB-435; over 20 µM in the assay on A498 renal; over 20 µM in the assay with BT-549 breast; over 20 µM in the assay on MDA-MB-231 breast; over 20 µM in the assay on SK-MEL-2 melanoma; 17.3 µM in the assay with MDA-N. Moreover, the TGI in the assay with SW-620 colon and with UACC-62 melanoma was over 20 µM each time.
`Cc1ccc(NC(=O)/C(=N\NC(N)=O)c2c(O)c3ccccc3[nH]c2=O)cc1`: the TGI with MDA-MB-435, in the assay with A498 renal, in the assay on BT-549 breast, with MDA-MB-231 breast, with SK-MEL-2 melanoma and in the assay on HCT-116 colon was over 100 µM in each case. Further, the TGI in the assay with MDA-N, in the assay with SW-620 colon and with UACC-62 melanoma was over 100 µM throughout.
Consider `CCOC(=O)c1cn2c(ccc3sc4ccccc4c(=O)c32)n1`, for which the TGI in the assay with MDA-MB-435, in the assay with A498 renal, with BT-549 breast, in the assay with MDA-MB-231 breast, with TK-10 renal and in the assay on HCT-116 colon was over 100 µM throughout. In addition, the TGI in the assay with MDA-N and in the assay on SW-620 colon was over 100 µM in each case.
As for `O=P1(Oc2ccccc2)NCc2ncccc2O1` (stereo not drawn), the TGI with MDA-MB-435, with A498 renal, with BT-549 breast, in the assay with MDA-MB-231 breast, in the assay with SK-MEL-2 melanoma and with HCT-116 colon was over 100 µM throughout. The TGI in the assay on MDA-N, with SW-620 colon and in the assay on UACC-62 melanoma was over 100 µM in each case.
As to `Cc1cc(=O)c2ccccc2n1CCCCCCCCCCn1c(C)cc(=O)c2ccccc21`, the TGI was 29.7 µM in the assay with MDA-MB-435; 28.9 µM with A498 renal; 23 µM in the assay with BT-549 breast; over 100 µM with MDA-MB-231 breast; 30.2 µM in the assay on TK-10 renal; 27.8 µM with HCT-116 colon. Besides, the TGI in the assay on MDA-N was found to be 43.1 µM; in the assay on SW-620 colon, 56 µM; with UACC-62 melanoma it was 34.9 µM.
Take `CC(C)(O)CCc1ccc(O)c2c(=O)c3c(O)c4c(cc3oc12)O[C@H]1OC=C[C@@]41O`: the TGI with MDA-MB-435 is under 0.01 µM; in the assay on BT-549 breast, over 62.5 µM; with MDA-MB-231 breast, over 100 µM; with SK-MEL-2 melanoma, under 0.01 µM; in the assay on TK-10 renal, over 100 µM; in the assay with HCT-116 colon, 4.52 µM. Besides, the TGI in the assay on MDA-N was 0.0142 µM; in the assay on SW-620 colon, 27.8 µM; with UACC-62 melanoma, under 0.01 µM.

These data come from PubChem BioAssay (NCI).
